Assay results published in ChEMBL document CHEMBL1159068, “Discovery and SAR of small molecule PAR1 antagonists” (Bioorg Med Chem Lett, 2010).

Columns and labels:
[1] = molecular target: T1, Proteinase-activated receptor 1 (Homo sapiens) (UniProt P25116); assay: Antagonist activity at PAR1 expressed in CHO cells assessed as inhibition of SFLLR-induced intracellular calcium release at 10 uM; format: functional, cell-based
T1 sequence (whole entry): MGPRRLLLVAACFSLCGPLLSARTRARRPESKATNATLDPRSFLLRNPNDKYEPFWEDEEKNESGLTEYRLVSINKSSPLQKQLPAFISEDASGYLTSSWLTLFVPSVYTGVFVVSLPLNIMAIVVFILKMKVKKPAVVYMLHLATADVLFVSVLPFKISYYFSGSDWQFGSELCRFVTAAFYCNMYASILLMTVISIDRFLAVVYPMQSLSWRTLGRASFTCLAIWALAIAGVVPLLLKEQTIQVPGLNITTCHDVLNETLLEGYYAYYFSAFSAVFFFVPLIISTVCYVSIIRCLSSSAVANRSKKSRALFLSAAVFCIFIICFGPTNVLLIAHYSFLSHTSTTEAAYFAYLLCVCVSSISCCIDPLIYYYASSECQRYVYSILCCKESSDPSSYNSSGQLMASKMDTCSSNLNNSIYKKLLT

Platelet = assay: Inhibition of SFLLR-induced aggregation in human platelets; format: functional
Rattus norvegicus = assay: Antithrombotic activity in rat arterio-venous shunt model of thrombosis assessed as increase in occlusion time at 1.25 mg/kg, iv; format: functional
[2] = Metabolic stability in human liver microsomes assessed as parent compound remaining after 60 mins; format: ADME, Microsome; conditions: read-out: Stability
[3] = Metabolic stability in rat liver microsomes assessed as parent compound remaining after 60 mins; format: ADME, Microsome; conditions: read-out: Stability
[4] = molecular target: T1, Proteinase-activated receptor 1 (Homo sapiens); assay: Antagonist activity at PAR1 expressed in CHO cells assessed as inhibition of SFLLR-induced intracellular calcium release; format: functional, cell-based

| inhibition [1] [%] | remaining at 1 h [2] [%] | remaining at 1 h [3] [%] | pKb [4] | SMILES | pKb (Platelet) | Activity (Rattus norvegicus) [%] |
| --- | --- | --- | --- | --- | --- | --- |
| 98 | – | – | – | CCOC(c1ccc2sccc2c1)C(SC(C)(C)C)n1ccnc1 (stereo not drawn) | 5.2 | – |
| 33 | – | – | – | CCCCOC(c1ccc(Cl)cc1)C(SC(C)(C)C)n1ccnc1 (stereo not drawn) | – | – |
| 76 | – | – | – | CCOC(c1cccc(OC)c1)C(SC(C)(C)C)n1ccnc1 (stereo not drawn) | 0 | – |
| 63 | – | – | – | CCOC(c1ccc(Cl)cc1)C(SC(C)(C)C)n1ccnc1C (stereo not drawn) | – | – |
| 0 | – | – | – | CCOC(c1ccc(Cl)cc1)C(SC(C)(C)C)n1cccn1 (stereo not drawn) | – | – |
| 99 | – | – | – | CCOC(c1ccc(Cl)cc1)C(SC(C)(C)C)n1cncn1 (stereo not drawn) | 4.64 | – |
| 81 | 23 | 3 | – | CCCOC(c1ccc(Cl)c(Cl)c1)C(OC(C)(C)C)n1cnc(C)c1 (stereo not drawn) | 5.73 | 43 |
| 74 | 57 | 3 | – | CCOC(c1ccc(Cl)cc1)C(CC(C)(C)C)n1ccnc1 (stereo not drawn) | 4.12 | – |
| 100 | – | – | – | CCOC(c1ccccc1Cl)C(SC(C)(C)C)n1cnc(C)c1 (stereo not drawn) | 5.21 | – |
| 98 | – | – | – | CCOC(c1ccc(C(F)(F)F)cc1)C(OC(C)(C)C)n1cnc(C)c1 (stereo not drawn) | 5.2 | – |
| 20 | – | – | – | CCOC(c1ccc(Cl)cc1)C(SC(C)(C)C)n1cnc(C(F)(F)F)c1 (stereo not drawn) | – | – |
| 76 | 23 | 0 | – | CCCOC(c1ccc(Br)cc1)C(SC(C)(C)C)n1cnc(C)c1 (stereo not drawn) | 5.99 | 0 |
| 96 | – | – | – | CCCOC(c1ccc(Cl)cc1)C(SC(C)(C)C)n1ccnc1 (stereo not drawn) | 5.01 | – |
| 18 | – | – | – | CCCOC(c1ccc(F)cc1)C(OC(C)(C)C)n1ccnc1 (stereo not drawn) | – | – |
| 33 | – | – | – | CCOC(c1ccccc1[N+](=O)[O-])C(SC(C)(C)C)n1ccnc1 (stereo not drawn) | – | – |
| 100 | – | – | – | CCOC(c1ccc(Br)cc1)C(SC(C)(C)C)n1cnc(C)c1 (stereo not drawn) | 5.73 | – |
| 96 | – | – | – | COC(c1ccc(Cl)cc1)C(SC(C)(C)C)n1cnc(C)c1 (stereo not drawn) | 4.42 | – |
| 88 | 28 | 2 | – | CCCOC(c1ccc(Cl)cc1Cl)C(SC(C)(C)C)n1cnc(C)c1 (stereo not drawn) | 5.95 | 7 |
| 92 | – | – | – | CCOC(c1ccccc1)C(SC(C)(C)C)n1ccnc1 (stereo not drawn) | 4.46 | – |
| 93 | – | – | – | CCCOC(c1ccc(Cl)c(Cl)c1)C(OC(C)(C)C)n1ccnc1 (stereo not drawn) | 5.04 | – |
| 97 | – | – | – | CCCOC(c1ccccc1Cl)C(SC(C)(C)C)n1cnc(C)c1 (stereo not drawn) | 5.14 | – |
| 100 | – | – | – | CCOC(c1ccc(C(F)(F)F)cc1)C(SC(C)(C)C)n1ccnc1 (stereo not drawn) | 5.38 | – |
| 19 | – | – | – | CCCCCSC(C(OCC)c1ccc(Cl)cc1)n1ccnc1 (stereo not drawn) | – | – |

| inhibition [1] [%] | remaining at 1 h [2] [%] | remaining at 1 h [3] [%] | pKb [4] | SMILES | pKb (Platelet) | Activity (Rattus norvegicus) [%] |
| --- | --- | --- | --- | --- | --- | --- |
| 13 | 35 | 47 | – | CCOC(c1ccc(Cl)cc1)C(n1ccnc1)S(=O)(=O)C(C)(C)C (stereo not drawn) | – | – |
| 59 | – | – | – | CCOC(c1ccc(Cl)cc1)C(SC(C)(C)C)n1cncc1Cl (stereo not drawn) | – | – |
| 100 | – | – | – | CCOC(c1cccc(Cl)c1)C(SC(C)(C)C)n1cnc(C)c1 (stereo not drawn) | 4.96 | – |
| 99 | 28 | 0 | 5.51 | CCCOC(c1ccc(Cl)cc1)C(SC(C)(C)C)n1cnc(C)c1 (stereo not drawn) | 5.71 | 45 |
| 100 | – | – | – | CCOC(c1ccc(Br)cc1)C(SC(C)(C)C)n1ccnc1 (stereo not drawn) | 5.06 | – |
| 88 | – | – | – | CCOC(c1ccc2c(c1)OCCO2)C(SC(C)(C)C)n1ccnc1 (stereo not drawn) | 4.79 | – |
| 76 | – | – | – | CCCCSC(C(OCC)c1ccc(Cl)cc1)n1ccnc1 (stereo not drawn) | 4.58 | – |
| 23 | – | – | – | CC(C)(C)SC(C(OCc1ccccc1)c1ccc(Cl)cc1)n1ccnc1 (stereo not drawn) | – | – |
| 11 | – | – | – | CC(C)(C)SC(C(O)c1ccc(Cl)cc1)n1ccnc1 (stereo not drawn) | – | – |
| 85 | 74 | 25 | – | CCOC(c1ccc(Cl)cc1)C(OC(C)(C)C)n1ccnc1 (stereo not drawn) | 4.54 | 0 |
| 96 | – | – | – | CCOC(c1ccc(Cl)cc1)C(SC(C)(C)C)n1cnc(Cl)c1 (stereo not drawn) | 4.6 | – |
| 99 | – | – | – | CCOC(c1ccc(Cl)cc1)C(SC(C)(C)C)n1ccnc1 (stereo not drawn) | 5.05 | – |
| 15 | 59 | 39 | – | CCOC(c1ccc(Cl)cc1)C(n1ccnc1)[S+]([O-])C(C)(C)C (stereo not drawn) | – | – |
| 64 | – | – | – | CCOC(c1ccc(Cl)cc1)C(SC(C)(C)C)n1cnc(C)c1C (stereo not drawn) | – | – |
| 34 | – | – | – | CCOC(c1ccc(Cl)cc1)C(SC(C)(C)C)n1cnnc1 (stereo not drawn) | – | – |
| 98 | 57 | 3 | – | CCOC(c1ccc(Cl)cc1Cl)C(OC(C)(C)C)n1cnc(C)c1 (stereo not drawn) | 5.32 | 0 |
| 3 | – | – | – | CCOC(c1ccc(Cl)cc1)C(SC1CCCCC1)n1ccnc1 (stereo not drawn) | – | – |
| 95 | – | – | – | COC(c1ccc(Cl)cc1)C(SC(C)(C)C)n1ccnc1 (stereo not drawn) | 5.24 | – |
| 37 | – | – | – | CCOC(c1ccc(C(=O)OC)cc1)C(SC(C)(C)C)n1ccnc1 (stereo not drawn) | – | – |
| 92 | – | – | – | CCOC(c1ccc(Cl)cc1)C(SC(C)(C)C)n1cnc(C)c1 (stereo not drawn) | 5.36 | – |
| 93 | – | – | – | CCOC(c1ccc(Cl)cc1Cl)C(SC(C)(C)C)n1cnc(C)c1 (stereo not drawn) | 5.84 | – |
| 40 | – | – | – | CCOC(c1ccc(Cl)cc1)C(SC(C)C)n1ccnc1 (stereo not drawn) | – | – |
